{"source": "patent US10301267B2", "about": "“Compounds” (AstraZeneca AB, priority 2006, dated 2019)", "note": "Where a name gives a salt, the structure may show the parent alone."}
{"target": "FGFR1 active kinase (Homo sapiens, UniProt P11362)", "sequence (P11362 22-822)": "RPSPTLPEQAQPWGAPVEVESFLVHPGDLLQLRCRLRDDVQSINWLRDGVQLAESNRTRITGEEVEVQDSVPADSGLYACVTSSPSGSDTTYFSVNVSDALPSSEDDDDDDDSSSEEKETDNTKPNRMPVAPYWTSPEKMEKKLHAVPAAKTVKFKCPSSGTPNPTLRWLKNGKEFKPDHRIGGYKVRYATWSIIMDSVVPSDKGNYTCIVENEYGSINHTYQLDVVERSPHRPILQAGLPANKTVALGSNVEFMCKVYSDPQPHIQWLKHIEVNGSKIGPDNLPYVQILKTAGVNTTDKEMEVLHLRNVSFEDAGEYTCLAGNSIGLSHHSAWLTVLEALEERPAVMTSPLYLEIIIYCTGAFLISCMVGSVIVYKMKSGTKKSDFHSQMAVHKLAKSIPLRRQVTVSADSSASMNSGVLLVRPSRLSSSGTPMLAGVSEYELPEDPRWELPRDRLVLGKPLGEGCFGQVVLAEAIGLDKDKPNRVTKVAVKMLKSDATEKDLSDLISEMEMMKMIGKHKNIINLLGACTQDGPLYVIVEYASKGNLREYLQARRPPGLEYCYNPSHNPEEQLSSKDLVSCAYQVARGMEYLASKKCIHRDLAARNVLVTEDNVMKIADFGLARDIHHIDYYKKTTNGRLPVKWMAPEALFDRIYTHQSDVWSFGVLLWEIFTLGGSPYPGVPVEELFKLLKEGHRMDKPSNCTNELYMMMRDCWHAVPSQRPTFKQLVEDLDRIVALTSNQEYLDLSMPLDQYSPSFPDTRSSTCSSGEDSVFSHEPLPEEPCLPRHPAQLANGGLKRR", "test": "FGFR Kinase assay - Caliper; note: 408 µM ATP", "format": "biochemical", "details": "FGFR1 […], 408 uM ATP; mean of n as printed; read-out: FGFR Kinase assay - Caliper, IC50", "experimental": "FGFR Kinase Assay—Caliper\nTo determine inhibition of FGFR activity, kinase assays were conducted using Caliper technology.\nKinase activity assays were performed in Greiner 384-well low volume plates, with a total reaction volume of 12 ul per well. Final concentration of FGFR1 active kinase in each reaction well was 7.2 nM. The substrate for each assay was a custom peptide with fluorescent tag (13 amino acids in length, […] with the fluorescene tag on the first K).\nCompounds were serially diluted in 5% (v/v) DMSO, before being added to assay plates. The Enzyme (at 7.2 nM [final]) and Substrate (at 3.6 uM [final]) were added separately to the compound plates, in reaction buffer [comprising: 50 mM MOPS (Sigma, Catalogue No. M1254)—pH 6.5, 0.004% Triton (Sigma, Catalogue No. X-100), 2.4 mM DTT, 12 mM MgCl2, 408 uM ATP] resulting in a final DMSO concentration in the reaction mix of 0.8%.\nAssay plates were incubated at room temperature for 1.5 h, before the reaction was stopped with the addition of buffer [comprising: 100 mM HEPES—pH7.5, 0.033% Brij-35 (Sigma Catalogue No. B4184), 0.22% Caliper Coating Reagent #3 (Caliper Life Sciences Catalogue No. 760050), 88 mM EDTA, 5% DMSO]. Stopped assay plates were then read using the Caliper LabChip® LC3000 (which uses microfludics to measure a shift in mobility between fluorescent labelled peptide and the FGFR1 kinase—phosphorylated form of this peptide).\nIn the assay, compounds were tested at a range of concentrations.\nPercentage inhibition at 1 uM, as expressed herein, is a calculated value based on the curve fit that was generated experimentally. From the fitted curve plot, the effect of compound at a concentration of 1 uM was calculated as a percentage inhibition. The IC50 is the concentration of compound, which inhibits FGFR1 kinase activity by 50% in the context of this assay.", "units": {"IC50": "nM"}}
{"smiles": "COc1cccc(CCc2cc(NC(=O)c3ccc(NC(=O)c4ccccc4)cc3)[nH]n2)c1", "note": "[Example 21, 4-Benzamido-N-[5-[2-(3-methoxyphenyl)ethyl]-2H-pyrazol-3-yl]benzamide]", "IC50": 231000}
{"smiles": "COc1cccc(CCc2cc(NC(=O)c3ccc(NS(C)(=O)=O)cc3)[nH]n2)c1", "note": "[Example 27, 4-Methanesulfonamido-N-[5-[2-(3-methoxyphenyl)ethyl]-2H-pyrazol-3-yl]benzamide]", "IC50": 260}
{"smiles": "COC(=O)c1ccc(C(=O)Nc2cc(CCc3cccc(OC)c3)n[nH]2)nc1", "note": "[Example 61, Methyl 6-[[5-[2-(3-methoxyphenyl)ethyl]-2H-pyrazol-3-yl]carbamoyl]pyridine-3-carboxylate]", "IC50": 68000}
{"smiles": "COc1cccc(CCc2cc(NC(=O)c3ccc(C#N)cc3)[nH]n2)c1", "note": "[Example 23, 4-Cyano-N-[5-[2-(3-methoxyphenyl)ethyl]-2H-pyrazol-3-yl]benzamide]", "IC50": 28600}
{"smiles": "COc1cc(CCc2cc(NC(=O)c3ccc(C(=O)N4CCN(C)CC4)cc3)n[nH]2)cc(OC)c1", "note": "[Example 86, N-[5-[2-(3,5-Dimethoxyphenyl)ethyl]-1H-pyrazol-3-yl]-4-(4-methylpiperazine-1-carbonyl)benzamide]", "IC50": 96}
{"smiles": "COc1cc(COc2cc(NC(=O)c3ccc(NCCN(C)C)cc3)[nH]n2)cc(OC)c1", "note": "[Example 70, N-[5-[(3,5-Dimethoxyphenyl)methoxy]-2H-pyrazol-3-yl]-4-(2-dimethylaminoethylamino)benzamide Hydrochloride]", "IC50": 31}
{"smiles": "COc1ccc(CCc2cc(NC(=O)c3ccc(N4CCN(C)CC4)cc3)[nH]n2)c(C)c1", "note": "[Example 79, N-[5-[2-(4-Methoxy-2-methyl-phenyl)ethyl]-2H-pyrazol-3-yl]-4-(4-methylpiperazin-1-yl)benzamide]", "IC50": 200}
{"smiles": "COc1cc(CCc2cc(NC(=O)c3ccc(C4CCN(C)CC4)cc3)n[nH]2)cc(OC)c1", "note": "[Example 92, N-[5-[2-(3,5-Dimethoxyphenyl)ethyl]-1H-pyrazol-3-yl]-4-(1-methyl-4-piperidyl)benzamide]", "IC50": 7.9}
{"smiles": "COc1ccc(C(=O)Nc2cc(OCc3cc(OC)cc(OC)c3)n[nH]2)cc1", "note": "[Example 71, N-[5-[(3,5-Dimethoxyphenyl)methoxy]-2H-pyrazol-3-yl]-4-methoxy-benzamide]", "IC50": 157}
{"smiles": "C=CCOC(=O)Nc1ccc(C(=O)Nc2cc(CCc3cccc(OC)c3)n[nH]2)cn1", "note": "[Example 35, Prop-2-enyl N-[5-[[5-[2-(3-methoxyphenyl)ethyl]-2H-pyrazol-3-yl]carbamoyl]pyridin-2-yl]carbamate]", "IC50": 76000}
{"smiles": "COc1cccc(CCc2cc(NC(=O)c3ccc(S(=O)(=O)N(C)C)cc3)[nH]n2)c1", "note": "[Example 30, 4-(Dimethylsulfamoyl)-N-[5-[2-(3-methoxyphenyl)ethyl]-2H-pyrazol-3-yl]benzamide]", "IC50": 800}
{"smiles": "COc1cc(COc2cc(NC(=O)c3cnc(N4CCN(C)CC4)nc3)n[nH]2)cc(OC)c1", "note": "[Example 73, N-[5-[(3,5-Dimethoxyphenyl)methoxy]-1H-pyrazol-3-yl]-2-(4-methylpiperazin-1-yl)pyrimidine-5-carboxamide]", "IC50": 44}
{"smiles": "COc1cc(CCc2cc(NC(=O)c3ccc(N4CCN(C(C)C)CC4)cc3)n[nH]2)cc(OC)c1", "note": "[Example 87, N-[5-[2-(3,5-Dimethoxyphenyl)ethyl]-1H-pyrazol-3-yl]-4-(4-propan-2-ylpiperazin-1-yl)benzamide]", "IC50": 0.4}
{"smiles": "COc1cc(CCc2cc(NC(=O)c3ccc(F)cc3)[nH]n2)cc(OC)c1", "note": "[Example 38, N-[5-[2-(3,5-Dimethoxyphenyl)ethyl]-2H-pyrazol-3-yl]-4-fluoro-benzamide]", "IC50": 165}
{"smiles": "CN1CCN(c2ccc(C(=O)Nc3cc(CCc4ccc5c(c4)OCO5)n[nH]3)cc2)CC1", "note": "[Example 77, N-[5-(2-Benzo[1,3]dioxol-5-ylethyl)-2H-pyrazol-3-yl]-4-(4-methylpiperazin-1-yl)benzamide]", "IC50": 140}
{"smiles": "COc1cccc(CCc2cc(NC(=O)c3cc(O)ccn3)[nH]n2)c1", "note": "[Example 64, 4-Hydroxy-N-[5-[2-(3-methoxyphenyl)ethyl]-2H-pyrazol-3-yl]pyridine-2-carboxamide]", "IC50": 5000}
{"smiles": "COc1cc(CCc2cc(NC(=O)c3ccc(CN(C)C)cc3)n[nH]2)cc(OC)c1", "note": "[Example 47, N-[5-[2-(3,5-Dimethoxyphenyl)ethyl]-1H-pyrazol-3-yl]-4-(dimethylaminomethyl)benzamide]", "IC50": 19}
{"smiles": "COc1cc(COc2cc(NC(=O)c3ccc(N4CCNCC4)nc3)[nH]n2)cc(OC)c1", "note": "[Example 72, N-[5-[(3,5-Dimethoxyphenyl)methoxy]-2H-pyrazol-3-yl]-6-piperazin-1-yl-pyridine-3-carboxamide]", "IC50": 25}
{"smiles": "COc1cc(CCc2cc(NC(=O)c3ccc(OCC4CCNCC4)cc3)n[nH]2)cc(OC)c1", "note": "[Example 44, N-[5-[2-(3,5-Dimethoxyphenyl)ethyl]-1H-pyrazol-3-yl]-4-(4-piperidylmethoxy)benzamide]", "IC50": 25}
{"smiles": "COc1cc(CCc2cc(NC(=O)c3cccc(N4CCOCC4)c3)n[nH]2)cc(OC)c1", "note": "[Example 40, N-[5-[2-(3,5-Dimethoxyphenyl)ethyl]-1H-pyrazol-3-yl]-3-morpholin-4-yl-benzamide]", "IC50": 710}
{"smiles": "CCOCCOc1ccc(C(=O)Nc2cc(CCc3cc(OC)cc(OC)c3)[nH]n2)cc1", "note": "[Example 42, N-[5-[2-(3,5-Dimethoxyphenyl)ethyl]-1H-pyrazol-3-yl]-4-(2-ethoxyethoxy)benzamide]", "IC50": 75}
{"smiles": "COc1cc(COc2cc(NC(=O)c3cccc(N4CCNCC4)c3)n[nH]2)cc(OC)c1", "note": "[Example 74, N-[5-[(3,5-Dimethoxyphenyl)methoxy]-1H-pyrazol-3-yl]-3-piperazin-1-yl-benzamide]", "IC50": 130}
{"smiles": "COc1cccc(CCc2cc(NC(=O)c3ccc(N4CCN(S(C)(=O)=O)CC4)cc3)n[nH]2)c1", "note": "[Example 91, N-[5-[2-(3-Methoxyphenyl)ethyl]-1H-pyrazol-3-yl]-4-(4-methylsulfonylpiperazin-1-yl)benzamide]", "IC50": 250}
{"smiles": "COc1cc(CCc2cc(NC(=O)c3ccccc3NCc3cc(C)no3)n[nH]2)cc(OC)c1", "note": "[Example 83, N-[5-[2-(3,5-Dimethoxyphenyl)ethyl]-1H-pyrazol-3-yl]-2-[(3-methyl-1,2-oxazol-5-yl)methylamino]benzamide]", "IC50": 1000}
{"smiles": "COc1cc(COc2cc(NC(=O)c3ccc(N4CCN(C)CC4)cn3)[nH]n2)cc(OC)c1", "note": "[Example 69, N-[5-[(3,5-Dimethoxyphenyl)methoxy]-2H-pyrazol-3-yl]-5-(4-methylpiperazin-1-yl)pyridine-2-carboxamide]", "IC50": 122}
{"smiles": "COc1cc(CCc2cc(NC(=O)c3ccc(CN4CCN(C)CC4)cc3)n[nH]2)cc(OC)c1", "note": "[Example 95, N-[5-[2-(3,5-Dimethoxyphenyl)ethyl]-1H-pyrazol-3-yl]-4-[(4-methylpiperazin-1-yl)methyl]benzamide]", "IC50": 140}
{"smiles": "COc1cc(CCc2cc(NC(=O)c3ccc(N4CCN(C)CC4)nn3)[nH]n2)cc(OC)c1", "note": "[Example 84, N-[5-[2-(3,5-Dimethoxyphenyl)ethyl]-2H-pyrazol-3-yl]-6-(4-methylpiperazin-1-yl)pyridazine-3-carboxamide]", "IC50": 390}
{"smiles": "COc1cccc(CCc2cc(NC(=O)c3ccc(O)nc3)[nH]n2)c1", "note": "[Example 31, 6-Hydroxy-N-[5-[2-(3-methoxyphenyl)ethyl]-2H-pyrazol-3-yl]pyridine-3-carboxamide]", "IC50": 1050}
{"smiles": "COc1ccc(OC)c(CCc2cc(NC(=O)c3ccc(N4CCN(C)CC4)cc3)[nH]n2)c1", "note": "[Example 78, N-[5-[2-(2,5-Dimethoxyphenyl)ethyl]-2H-pyrazol-3-yl]-4-(4-methylpiperazin-1-yl)benzamide]", "IC50": 470}
{"smiles": "COc1cc(CCc2cc(NC(=O)c3ccc(CN4CCc5ccc(C#N)cc5C4)cc3)n[nH]2)cc(OC)c1", "note": "[Example 52, 4-[(7-Cyano-3,4-dihydro-1H-isoquinolin-2-yl)methyl]-N-[5-[2-(3,5-dimethoxyphenyl)ethyl]-1H-pyrazol-3-yl]benzamide]", "IC50": 486}
{"smiles": "COC(=O)c1ccc(C(=O)Nc2cc(CCc3cccc(OC)c3)n[nH]2)cn1", "note": "[Example 67, Methyl 5-[[5-[2-(3-methoxyphenyl)ethyl]-2H-pyrazol-3-yl]carbamoyl]pyridine-2-carboxylate]", "IC50": 2860}
{"smiles": "COc1cc(CCc2cc(NC(=O)c3ccc(OCCO)cc3)n[nH]2)cc(OC)c1", "note": "[Example 48, N-[5-[2-(3,5-Dimethoxyphenyl)ethyl]-1H-pyrazol-3-yl]-4-(2-hydroxyethoxy)benzamide]", "IC50": 39}
{"smiles": "COc1cc(CCc2cc(NC(=O)c3ccc(N(C)C)cc3)n[nH]2)cc(OC)c1", "note": "[Example 59, N-[5-[2-(3,5-Dimethoxyphenyl)ethyl]-1H-pyrazol-3-yl]-4-dimethylamino-benzamide]", "IC50": 134}
{"smiles": "COc1cccc(CCc2cc(NC(=O)c3ccc(CCN4CCCC4)nc3)[nH]n2)c1", "note": "[Example 65, N-[5-[2-(3-Methoxyphenyl)ethyl]-2H-pyrazol-3-yl]-6-(2-pyrrolidin-1-ylethyl)pyridine-3-carboxamide]", "IC50": 240}
